The test deals with human PAD4 (hPAD4) (Homo sapiens, UniProt Q9UM07). As to the kind of experiment: RFMS Human PAD4 Functional Assay. The conditions noted are these: 5 nM hPAD4, 250 μM BAEE. The class given is biochemical. In short, it runs like this:
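RapidFire ESI-MS quantification, normalised to a modified-citrulline internal standard, after phenyl glyoxal (final 4 mM) derivatisation of the TCA-quenched reaction. The enzyme (10 nM) sat 30 min with compound (up to 50 μM final) before 500 μM BAEE (as added) started a 90 min, 37 °C reaction. Buffer: HEPES pH 7.5, 50 μM calcium, 5 μM TPEN.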

Where [1] appears, read: hPAD4 RFMS IC50, human PAD4, rapid-fire mass spectrum (RFMS) assay.
[2] abbreviates: human PAD4, rapid-fire mass spectrum (RFMS) assay, read-out: hPAD4 RFMS IC50.

pIC50: −log10 of the molar value. Where two headings read alike, the source gives them in different places.

In general, pIC50 refers to −log10 of the IC50, conventionally taken in molar units.

Sequence of human PAD4 (hPAD4) (Q9UM07 whole entry): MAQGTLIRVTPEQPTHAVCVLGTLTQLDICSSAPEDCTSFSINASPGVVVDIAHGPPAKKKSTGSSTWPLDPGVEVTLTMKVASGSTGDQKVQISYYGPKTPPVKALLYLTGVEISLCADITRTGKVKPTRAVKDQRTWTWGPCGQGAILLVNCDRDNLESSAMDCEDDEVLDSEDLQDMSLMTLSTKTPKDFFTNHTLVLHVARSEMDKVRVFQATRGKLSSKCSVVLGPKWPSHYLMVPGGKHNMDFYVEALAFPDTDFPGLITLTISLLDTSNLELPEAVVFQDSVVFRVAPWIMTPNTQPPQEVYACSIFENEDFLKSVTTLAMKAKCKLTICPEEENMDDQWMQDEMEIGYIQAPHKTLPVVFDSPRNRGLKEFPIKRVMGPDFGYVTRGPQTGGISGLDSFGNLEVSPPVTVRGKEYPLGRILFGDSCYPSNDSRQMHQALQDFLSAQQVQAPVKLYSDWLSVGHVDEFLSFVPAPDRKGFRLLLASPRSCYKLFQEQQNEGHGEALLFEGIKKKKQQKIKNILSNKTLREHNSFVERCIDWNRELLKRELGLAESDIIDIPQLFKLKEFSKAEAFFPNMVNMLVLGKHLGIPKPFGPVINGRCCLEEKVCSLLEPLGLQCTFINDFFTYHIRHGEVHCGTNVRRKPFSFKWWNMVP

On to `COc1cc(C(=O)N2C[C@H]3CC[C@@H]2[C@@H]3N)cc2nc(-c3cc4cccc(-c5ccc(O)cc5C#N)c4n3CC3CC3)n(C)c12` [Example 193, 2-(2-(5-((1R,4R,7R)-7-amino-2-azabicyclo[2.2.1]heptane-2-carbonyl)-7-methoxy-1-methyl-1H-benzo[d]imidazol-2-yl)-1-(cyclopropylmethyl)-1H-indol-7-yl)-5-hydroxybenzonitrile], for which, under setting [1], the pIC50 is 7.48. Molecule `COc1cc(C(=O)N2C[C@H]3CC[C@@H]2[C@@H]3N)cc2nc(-c3cc4cccc(C5CN(C(=O)C(C)(C)C)C5)c4n3CC3CC3)n(C)c12` [Example 67, 1-[3-(2-{5-[(1R,4R,7R)-7-amino-2-azabicyclo[2.2.1]heptane-2-carbonyl]-7-methoxy-1-methyl-1H-1,3-benzodiazol-2-yl}-1-(cyclopropylmethyl)-1H-indol-7-yl)azetidin-1-yl]-2,2-dimethylpropan-1-one] had a pIC50 under setting [1] of 6.72. Consider `COc1cc(C(=O)N2C[C@H]3CC[C@@H]2[C@@H]3N)cc2nc(-c3cc4cccc(-c5cc[nH]n5)c4n3CC3CC3C)n(C)c12` (stereo partly drawn) [Example 157, ((1R,4R,7R)-7-amino-2-azabicyclo[2.2.1]heptan-2-yl)(7-methoxy-1-methyl-2-(1-((2-methylcyclopropyl)meth-yl)-7-(1H-pyrazol-3-yl)-1H-indol-2-yl)-1H-benzo[d]imidazol-5-yl)methanone], for which the pIC50 under setting [1] is 7.10. `COc1cc(C(=O)N2C[C@H]3CC[C@@H]2[C@@H]3N)cc2nc(-c3cc4cccc(C5CC(NC(C)=O)C5)c4n3CC3CC3)n(C)c12` (single isomer, unassigned) [Example 59]: under setting [2], the pIC50 is 7.23.

`COc1cc(C(=O)N2C[C@H]3CC[C@@H]2[C@@H]3N)cc2nc(-c3cc4cccc(C5CN(C(=O)Nc6ccccc6)C5)c4n3CC3CC3)n(C)c12` [Example 70, 3-(2-{5-[(1R,4R,7R)-7-amino-2-azabicyclo[2.2.1]heptane-2-carbonyl]-7-methoxy-1-methyl-1H-1,3-benzodiazol-2-yl}-1-(cyclopropylmethyl)-1H-indol-7-yl)-N-phenylazetidine-1-carboxamide] showed a pIC50 under setting [1] of 7.82. On to `COc1cc(C(=O)N2C[C@H]3CC[C@@H]2[C@@H]3N)cc2nc(-c3cc4cccc(C5CCCC(C(N)=O)C5)c4n3CC3CC3)n(C)c12` (single isomer, unassigned) [Example 85], for which the pIC50 under setting [2] was 7.31. For `COc1cc(C(=O)N2C[C@H]3CC[C@@H]2[C@@H]3N)cc2nc(-c3cc4cccc(CCO)c4n3CC3CC3)n(C)c12` [Example 35, 2-(2-{5-[(1R,4R,7R)-7-amino-2-azabicyclo[2.2.1]heptane-2-carbonyl]-7-methoxy-1-methyl-1H-1,3-benzodiazol-2-yl}-1-(cyclopropylmethyl)-1H-indol-7-yl)ethan-1-ol], the pIC50 under setting [1] is 6.99. Turning to `C#CCOCC(O)Cn1cc(-c2cccc3cc(-c4nc5cc(C(=O)N6CC7CCC6[C@@H]7N)cc(OC)c5n4C)n(CC4CC4)c23)cn1` (stereo partly drawn) [Example 128, ((7R)-7-amino-2-azabicyclo[2.2.1]heptan-2-yl)(2-(1-(cyclopropylmethyl)-7-(1-(2-hydroxy-3-(prop-2-yn-1-yloxy)propyl)-1H-pyrazol-4-yl)-1H-indol-2-yl)-7-methoxy-1-methyl-1H-benzo[d]imidazol-5-yl)methanone], under setting [1], the pIC50 was 6.89. On the same count and under the same terms, for `COc1cc(C(=O)N2C[C@H]3CC[C@@H]2[C@@H]3N)cc2nc(-c3cc4cccc(-c5cn[nH]c5)c4n3CC3CC3(F)F)n(C)c12` (stereo partly drawn) [Example 150, ((1R,4R,7R)-7-amino-2-azabicyclo[2.2.1]heptan-2-yl)(2-(1-((2,2-difluorocyclopropyl)meth-yl)-7-(1H-pyrazol-4-yl)-1H-indol-2-yl)-7-methoxy-1-methyl-1H-benzo[d]imidazol-5-yl)methanone] the value was 7.34. As to `COc1cc(C(=O)N2C[C@H]3CC[C@@H]2[C@@H]3N)cc2nc(-c3cc4cccc(CCCC(=O)O)c4n3CC3CC3)n(C)c12` [Example 60, 4-(2-{5-[(1R,4R,7R)-7-amino-2-azabicyclo[2.2.1]heptane-2-carbonyl]-7-methoxy-1-methyl-1H-1,3-benzodiazol-2-yl}-1-(cyclopropylmethyl)-1H-indol-7-yl)butanoic Acid], the pIC50 under setting [2] is 6.97. On to `COc1cc(C(=O)N2CC3CCC2C3N)cc2nc(-c3cc4cccc(Nc5cnc(C#N)nc5)c4n3CC3CC3)n(C)c12` (centres unmarked) [Example 167, 5-((2-(4-(7-amino-2-azabicyclo[2.2.1]heptane-2-carbonyl)-7-methoxy-1-methyl-1H-benzo[d]imidazol-2-yl)-1-(cyclopropyllmethyl)-1H-indol-7-yl)amino)pyrimidine-2-carbonitrile], for which, under setting [1], the pIC50 was 6.86. Same read-out and setting: for `COc1cc(C(=O)N2C[C@H]3CC[C@@H]2[C@@H]3N)cc2nc(-c3cc4cccc(-c5cnc(C#N)nc5)c4n3CC3CC3(F)F)n(C)c12` (stereo partly drawn) [Example 149, 5-(2-(5-((1R,4R,7R)-7-amino-2-azabicyclo[2.2.1]heptane-2-carbonyl)-7-methoxy-1-methyl-1H-benzo[d]imidazol-2-yl)-1-((2,2-difluorocyclopropyl)meth-yl)-1H-indol-7-yl)pyrimidine-2-carbonitrile] the value was 6.77; for `COc1cc(C(=O)N2CC3CCC2[C@@H]3N)cc2nc(-c3cc4cccc(-c5cccc(CO)c5)c4n3CC3CC3)n(C)c12` (stereo partly drawn) [Example 136, ((7R)-7-amino-2-azabicyclo[2.2.1]heptan-2-yl)(2-(1-(cyclopropylmethyl)-7-(3-(hydroxymethyl)phenyl)-1H-indol-2-yl)-7-methoxy-1-methyl-1H-benzo[d]imidazol-5-yl)methanone], 7.11; for `[2H]C([2H])([2H])N(C(=O)C1CC(c2cccc3cc(-c4nc5cc(C(=O)N6C[C@H]7CC[C@@H]6[C@@H]7N)cc(OC)c5n4C)n(CC4CC4)c23)C1)C([2H])([2H])[2H]` (single isomer, unassigned; isomer 1) [Example 195], 7.80. Same read-out and setting: next, `COc1cc(C(=O)N2C[C@H]3CC[C@@H]2[C@@H]3N)cc2nc(-c3cc4cccc(-c5ccc6c(=O)[nH]ccc6c5)c4n3CC3CC3)n(C)c12` [Example 102, 6-(2-{5-[(1R,4R,7R)-7-amino-2-azabicyclo[2.2.1]heptane-2-carbonyl]-7-methoxy-1-methyl-1H-1,3-benzodiazol-2-yl}-1-(cyclopropylmethyl)-1H-indol-7-yl)-1,2-dihydroisoquinolin-1-one]: 6.88; `COc1cc(C(=O)N2C[C@H]3CC[C@@H]2[C@@H]3N)cc2nc(-c3cc4cccc(-c5ccc6c(c5)C(=O)NC6)c4n3CC3CC3)n(C)c12` [Example 98, 6-(2-{5-[(1R,4R,7R)-7-amino-2-azabicyclo[2.2.1]heptane-2-carbonyl]-7-methoxy-1-methyl-1H-1,3-benzodiazol-2-yl}-1-(cyclopropylmethyl)-1H-indol-7-yl)-2,3-dihydro-1H-isoindol-1-one]: 7.46; `COc1cc(C(=O)N2C[C@H]3CC[C@@H]2[C@@H]3N)cc2nc(-c3cc4cccc(-c5ccc6c(c5)C(F)(F)C(=O)N6)c4n3CC3CC3)n(C)c12` [Example 190, 5-(2-(5-((1R,4R,7R)-7-amino-2-azabicyclo[2.2.1]heptane-2-carbonyl)-7-methoxy-1-methyl-1H-benzo[d]imidazol-2-yl)-1-(cyclopropylmethyl)-1H-indol-7-yl)-3,3-difluoroindolin-2-one]: 7.07.

The values above are taken from patent US20220402950A1, “SUBSTITUTED BENZIMIDAZOLES AS PAD4 INHIBITORS” (BRISTOL-MYERS SQUIBB COMPANY, priority 2018, published 2022).
